Results taken from patent US9586961B2, “Homopiperazine derivatives as protein tyrosine kinase inhibitors and pharmaceutical use thereof” (LEO PHARMA A/S, priority 2010, dated 2017).
pEC50: −log10 of the molar value.

Tests used:
Format in all cases: biochemical
[1] = molecular target: T1, JAK1 (Homo sapiens, UniProt P23458); test: JAK1 kinase assay (HTRF, inhibition of phosphorylation of a synthetic peptide); conditions: catalytic domain aa 850-1154, GST-tag; 7 μM ATP (Km); read-out: JAK1 kinase inhibitory activity (EC50)
T1 construct: JAK1 (aa 850-1154) and TYK2 (aa 871-1187) are expressed with an N-terminally fused GST-tag; GST (N); purchased Carna Biosciences, Inc; host or cells: baculovirus expression system
T1 sequence (P23458 850-1154): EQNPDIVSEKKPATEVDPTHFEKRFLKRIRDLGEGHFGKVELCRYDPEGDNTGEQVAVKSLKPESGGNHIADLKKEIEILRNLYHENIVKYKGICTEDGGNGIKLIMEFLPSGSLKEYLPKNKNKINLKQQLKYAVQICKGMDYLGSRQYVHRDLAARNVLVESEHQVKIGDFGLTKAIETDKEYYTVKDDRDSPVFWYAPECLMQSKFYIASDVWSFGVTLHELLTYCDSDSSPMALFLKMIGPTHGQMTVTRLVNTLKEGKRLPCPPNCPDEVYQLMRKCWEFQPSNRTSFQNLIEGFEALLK
Description: (§1) JAK1, JAK2, JAK3 and TYK2 Kinase Assays:
(§2) Human baculovirus-expressed JAK1, 2, 3 and TYK2 were purchased from Carna Biosciences, Inc. All four purified enzymes contain only the catalytic domain. JAK1 (aa 850-1154) and TYK2 (aa 871-1187) are expressed with an N-terminally fused GST-tag, and JAK2 and JAK3 with an N-terminally fused His-tag. Inhibition of phosphorylation of a synthetic peptide was measured in an HTRF-based assay using the TK substrate-Biotin from the CisbioHTRFKinEASE TK kit. First, 2 μl of TK solution (TK substrate-biotin in kinase buffer [1× enzymatic buffer from HTRFKinEASE TK kit, 1 mM DTT]) is added to a plate containing 1 μl prediluted compound (final assay concentration DMSO: 0.75%). Then, 5 μl kinase-ATP mix (prepared in kinase buffer) is added to the wells and the plates are incubated at RT for 20-30 min. For all four kinases a concentration of ATP that corresponded to the Km for ATP was used. The final concentrations of buffers, substrate, kinase and ATP were: JAK1: 50 mMHepes buffer pH 7.0, 0.01% BSA, 10 mM MgCl2, 1 mM DTT, 7 μM ATP, 50 nMSEB, 1 μM TK Substrate-Biotin and 5 ng JAK1; JAK2: 50 mM Hepes buffer pH 7.0, 0.01% BSA, 5 mM MgCl2, 1 mM DTT, 4 μM ATP, 1 μM TK Substrate-Biotin and 0.1 ng JAK2; JAK3: 50 mMHepes buffer pH 7.0, 0.01% BSA, 5 mM MgCl2, 1 mM DTT, 2 μM ATP, 1 μM TK Substrate-Biotin and 0.3 ng JAK3; TYK2: 50 mMHepes buffer pH 7.0, 0.01% BSA, 5 mM MgCl2, 1 mM DTT, 13 μM ATP, 50 nMSEB, 1 μM TK Substrate-Biotin and 0.8 ng TYK2. Thereafter, the kinase reaction is stopped by adding 4 μl detection mix (final concentrations: 50 mM Hepes buffer pH 7.0, 0.01% BSA, 0.8 M KF, 20 mM EDTA, 42 nM Streptavidin-XL665 and 1:400 STKAbCryptate) and the plates are incubated overnight in the dark. The HTRF signal is read using an Envision plate reader.

[2] = molecular target: T2, JAK2 (Homo sapiens, UniProt O60674); test: JAK2 kinase assay (HTRF, inhibition of phosphorylation of a synthetic peptide); conditions: catalytic domain, His-tag; 4 μM ATP (Km); read-out: JAK2 kinase inhibitory activity (EC50)
T2 construct: All four purified enzymes contain only the catalytic domain; His (N); purchased Carna Biosciences, Inc; host or cells: baculovirus expression system
T2 sequence (O60674 849-1124 limits assumed): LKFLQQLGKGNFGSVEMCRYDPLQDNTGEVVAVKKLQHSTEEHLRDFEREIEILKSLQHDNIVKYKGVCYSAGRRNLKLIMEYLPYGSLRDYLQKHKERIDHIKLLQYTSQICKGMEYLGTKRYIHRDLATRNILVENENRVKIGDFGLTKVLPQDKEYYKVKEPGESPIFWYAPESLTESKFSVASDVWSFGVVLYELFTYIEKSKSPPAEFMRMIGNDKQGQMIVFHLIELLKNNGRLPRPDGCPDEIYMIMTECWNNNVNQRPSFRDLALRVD
Description: as §1, §2

[3] = molecular target: T3, JAK3 (Homo sapiens, UniProt P52333); test: JAK3 kinase assay (HTRF, inhibition of phosphorylation of a synthetic peptide); conditions: catalytic domain, His-tag; 2 μM ATP (Km); read-out: JAK3 kinase inhibitory activity (EC50)
T3 construct: All four purified enzymes contain only the catalytic domain; His (N); purchased Carna Biosciences, Inc; host or cells: baculovirus expression system
T3 sequence (P52333 822-1111 limits assumed): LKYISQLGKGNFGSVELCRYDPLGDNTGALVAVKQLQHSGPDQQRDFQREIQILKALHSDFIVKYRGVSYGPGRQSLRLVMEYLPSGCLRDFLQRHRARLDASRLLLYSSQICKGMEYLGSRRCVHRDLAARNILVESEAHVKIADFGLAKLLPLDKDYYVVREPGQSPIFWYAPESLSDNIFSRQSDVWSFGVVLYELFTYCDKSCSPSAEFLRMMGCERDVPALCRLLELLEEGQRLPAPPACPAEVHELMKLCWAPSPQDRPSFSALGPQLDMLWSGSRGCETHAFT
Description: as §1, §2

Row | SMILES | pEC50 [1] | pEC50 [2] | pEC50 [3]
1 | Cc1cnccc1C(=O)N1CCCN(c2ncnc3[nH]ccc23)CC12CC2 [Example 138, (3-methyl-4-pyridyl)-[5-(7H-pyrrolo[2,3-d]pyrimidin-4-yl)-5,9-diazaspiro[2.6]nonan-9-yl]methanone] | < 6.00 | 6.00 to 7.00 | < 6.00
2 | Cc1cnccc1C(=O)N1CCN(c2ncnc3[nH]ccc23)CC2(CC2)C1 [Example 137, (3-methyl-4-pyridyl)-[5-(7H-pyrrolo[2,3-d]pyrimidin-4-yl)-5,8-diazaspiro[2.6]nonan-8-yl]methanone] | < 6.00 | 6.00 to 7.00 | < 6.00
3 | Cc1cncc(C(=O)N2CCN(c3ncnc4[nH]ccc34)CC3(CC3)C2)n1 [Example 169, (6-methylpyrazin-2-yl)-[5-(7H-pyrrolo[2,3-d]pyrimidin-4-yl)-5,8-diazaspiro[2.6]nonan-8-yl]methanone] | < 6.00 | 6.00 to 7.00 | < 6.00
4 | Cc1nccnc1C(=O)N1CCN(c2ncnc3[nH]ccc23)CC2(CC2)C1 [Example 168, (3-methylpyrazin-2-yl)-[5-(7H-pyrrolo[2,3-d]pyrimidin-4-yl)-5,8-diazaspiro[2.6]nonan-8-yl]methanone] | < 6.00 | < 6.00 | < 6.00
5 | O=C(c1cncs1)N1CCCN(c2ncnc3[nH]ccc23)CC12CC2 [Example 240, [5-(7H-pyrrolo[2,3-d]pyrimidin-4-yl)-5,9-diazaspiro[2.6]nonan-9-yl]-thiazol-5-yl-methanone] | 6.00 to 7.00 | 6.00 to 7.00 | 6.00 to 7.00
6 | O=C(c1cnon1)N1CCCN(c2ncnc3[nH]ccc23)CC12CC2 [Example 121, 1,2,5-oxadiazol-3-yl-[5-(7H-pyrrolo[2,3-d]pyrimidin-4-yl)-5,9-diazaspiro[2.6]nonan-9-yl]methanone] | 6.00 to 7.00 | 6.00 to 7.00 | > 7.00
7 | O=C(c1cscn1)N1CCN(c2ncnc3[nH]ccc23)CC2(CC2)C1 [Example 216, [5-(7H-pyrrolo[2,3-d]pyrimidin-4-yl)-5,8-diazaspiro[2.6]nonan-8-yl]-thiazol-4-yl-methanone] | 6.00 to 7.00 | 6.00 to 7.00 | 6.00 to 7.00
8 | O=C(c1ccncc1)N1CCN(c2ncnc3[nH]ccc23)CC2(CC2)C1 [Example 129, 4-pyridyl-[5-(7H-pyrrolo[2,3-d]pyrimidin-4-yl)-5,8-diazaspiro[2.6]nonan-8-yl]methanone] | 6.00 to 7.00 | 6.00 to 7.00 | < 6.00
9 | O=C(c1cncnc1)N1CCN(c2ncnc3[nH]ccc23)CC2(CC2)C1 [Example 160, pyrimidin-5-yl-[5-(7H-pyrrolo[2,3-d]pyrimidin-4-yl)-5,8-diazaspiro[2.6]nonan-8-yl]methanone] | < 6.00 | 6.00 to 7.00 | < 6.00
10 | Cc1nc(C)c(CC(=O)N2CCCN(c3ncnc4[nH]ccc34)CC23CC3)s1 [Example 140, 2-(2,4-dimethylthiazol-5-yl)-1-[5-(7H-pyrrolo[2,3-d]pyrimidin-4-yl)-5,9-diazaspiro[2.6]nonan-9-yl]ethanone] | < 6.00 | < 6.00 | < 6.00
11 | O=C(c1ccc(F)cc1)N1CCN(c2ncnc3[nH]ccc23)CC2(CC2)C1 [Example 113, (4-fluorophenyl)-[5-(7H-pyrrolo[2,3-d]pyrimidin-4-yl)-5,8-diazaspiro[2.6]nonan-8-yl]methanone] | 6.00 to 7.00 | 6.00 to 7.00 | 6.00 to 7.00

Now from value to compound:

Row | pEC50 [1] | pEC50 [2] | pEC50 [3] | SMILES
12 | 6.00 to 7.00 | > 7.00 | < 6.00 | Cc1cccc(CC(=O)N2CCN(c3ncnc4[nH]ccc34)CC3(CC3)C2)c1 [Example 262, 2-(m-tolyl)-1-[5-(7H-pyrrolo[2,3-d]pyrimidin-4-yl)-5,8-diazaspiro[2.6]nonan-8-yl]ethanone]
13 | 6.00 to 7.00 | > 7.00 | 6.00 to 7.00 | CN(C)c1ccc(CC(=O)N2CCN(c3ncnc4[nH]ccc34)CC3(CC3)C2)cc1 [Example 268, 2-(4-dimethylaminophenyl)-1-[5-(7H-pyrrolo[2,3-d]pyrimidin-4-yl)-5,8-diazaspiro[2.6]nonan-8-yl]ethanone]
14 | 6.00 to 7.00 | 6.00 to 7.00 | 6.00 to 7.00 | O=C(c1cnsc1)N1CCCN(c2ncnc3[nH]ccc23)CC12CC2 [Example 211, isothiazol-4-yl-[5-(7H-pyrrolo[2,3-d]pyrimidin-4-yl)-5,9-diazaspiro[2.6]nonan-9-yl]methanone]
15 | 6.00 to 7.00 | 6.00 to 7.00 | 6.00 to 7.00 | O=C1CSC(=O)N1CC(=O)N1CCCN(c2ncnc3[nH]ccc23)CC12CC2 [Example 85, 3-[2-oxo-2-[5-(7H-pyrrolo[2,3-d]pyrimidin-4-yl)-5,9-diazaspiro[2.6]nonan-9-yl]ethyl]thiazolidine-2,4-dione]
16 | 6.00 to 7.00 | > 7.00 | < 6.00 | Cc1ncc(CC(=O)N2CCN(c3ncnc4[nH]ccc34)CC3(CC3)C2)s1 [Example 247, 2-(2-methylthiazol-5-yl)-1-[5-(7H-pyrrolo[2,3-d]pyrimidin-4-yl)-5,8-diazaspiro[2.6]nonan-8-yl]ethanone]
17 | 6.00 to 7.00 | 6.00 to 7.00 | 6.00 to 7.00 | O=C(c1ccon1)N1CCN(c2ncnc3[nH]ccc23)CC2(CC2)C1 [Example 152, isoxazol-3-yl-[5-(7H-pyrrolo[2,3-d]pyrimidin-4-yl)-5,8-diazaspiro[2.6]nonan-8-yl]methanone]
18 | 6.00 to 7.00 | > 7.00 | 6.00 to 7.00 | N#C[C@@H]1CCCN1C(=O)N1CCN(c2ncnc3[nH]ccc23)CC2(CC2)C1 [Example 222, (2S)-1-[5-(7H-pyrrolo[2,3-d]pyrimidin-4-yl)-5,8-diazaspiro[2.6]nonane-8-carbonyl]pyrrolidine-2-carbonitrile]
19 | 6.00 to 7.00 | 6.00 to 7.00 | < 6.00 | O=C(c1cccnc1)N1CCN(c2ncnc3[nH]ccc23)CC2(CC2)C1 [Example 127, 3-pyridyl-[5-(7H-pyrrolo[2,3-d]pyrimidin-4-yl)-5,8-diazaspiro[2.6]nonan-8-yl]methanone]
20 | 6.00 to 7.00 | 6.00 to 7.00 | 6.00 to 7.00 | CN1CCN(CC(=O)N2CCCN(c3ncnc4[nH]ccc34)CC23CC3)C1=O [Example 83, 1-methyl-3-[2-oxo-2-[5-(7H-pyrrolo[2,3-d]pyrimidin-4-yl)-5,9-diazaspiro[2.6]nonan-9-yl]ethyl]imidazolidin-2-one]
21 | 6.00 to 7.00 | 6.00 to 7.00 | 6.00 to 7.00 | O=C(c1cnsc1)N1CCN(c2ncnc3[nH]ccc23)CC2(CC2)C1 [Example 210, isothiazol-4-yl-[5-(7H-pyrrolo[2,3-d]pyrimidin-4-yl)-5,8-diazaspiro[2.6]nonan-8-yl]methanone]
22 | > 7.00 | > 7.00 | 6.00 to 7.00 | O=C(Cc1nnn[nH]1)N1CCN(c2ncnc3[nH]ccc23)CC2(CC2)C1 [Example 215, 1-[5-(7H-pyrrolo[2,3-d]pyrimidin-4-yl)-5,8-diazaspiro[2.6]nonan-8-yl]-2-(1H-tetrazol-5-yl)ethanone]
23 | > 7.00 | > 7.00 | 6.00 to 7.00 | Cc1cc(CC(=O)N2CCN(c3ncnc4[nH]ccc34)CC3(CC3)C2)on1 [Example 184, 2-(3-methylisoxazol-5-yl)-1-[5-(7H-pyrrolo[2,3-d]pyrimidin-4-yl)-5,8-diazaspiro[2.6]nonan-8-yl]ethanone]
24 | 6.00 to 7.00 | > 7.00 | < 6.00 | Cc1cc(CC(=O)N2CCN(c3ncnc4[nH]ccc34)CC3(CC3)C2)n[nH]1 [Example 248, 2-(5-methyl-1H-pyrazol-3-yl)-1-[5-(7H-pyrrolo[2,3-d]pyrimidin-4-yl)-5,8-diazaspiro[2.6]nonan-8-yl]ethanone]
25 | 6.00 to 7.00 | 6.00 to 7.00 | 6.00 to 7.00 | CC(C)(C)c1ccc(CC(=O)N2CCN(c3ncnc4[nH]ccc34)CC3(CC3)C2)cc1 [Example 267, 2-(4-tert-butylphenyl)-1-[5-(7H-pyrrolo[2,3-d]pyrimidin-4-yl)-5,8-diazaspiro[2.6]nonan-8-yl]ethanone]
